Measurements reported in patent US11773140B2, “Gram-negative lysin-antimicrobial peptide (AMP) polypeptide constructs, lysins, isolated polynucleotides encoding same and uses thereof in human serum” (priority 2018, dated 2023).
Read-outs that look alike come from different tables or passages of the source.

How the values were obtained:
Type in all cases: cell-based, Pseudomonas aeruginosa
[1] = system: carbapenem-resistant P. aeruginosa isolate PA22
Description: (§1) Such resensitization may be determined by combining the present lysins or lysin-AMP polypeptide constructs with an antibiotic in a checkerboard assay as described herein. Antibiotic-resistant bacteria, such as carbapenem-resistant P. aeruginosa, are added to the lysin or lysin-AMP polypeptide construct combination. […] See Clinical and Laboratory Standards Institute (CLSI), CLSI. […] M100 Performance Standards for Antimicrobial Susceptibility Testing; 29th Edition. Clinical and Laboratory Standards Institute, Wayne, Pa.
(§2) Up to seven carbapenem-resistant isolates were assessed. […] See Clinical and Laboratory Standards Institute (CLSI), CLSI. […] M100 Performance Standards for Antimicrobial Susceptibility Testing; 29th Edition. Clinical and Laboratory Standards Institute, Wayne, Pa.

[2] = system: carbapenem-resistant P. aeruginosa isolate PA20
Description: as §1, §2

[3] = system: carbapenem-resistant P. aeruginosa isolate PA19
Description: as §1, §2

[4] = system: carbapenem-resistant P. aeruginosa isolate PA21
Description: as §1, §2

[5] = system: carbapenem-resistant isolate WC-452
Description: as §1, §2

[6] = system: carbapenem-resistant P. aeruginosa isolate PA23
Description: as §1, §2

[7] = system: carbapenem-resistant P. aeruginosa isolate PA24
Description: as §1, §2

Row | SMILES | carbapenem susceptibility category, Alone [1] | carbapenem MIC, Combination ([1]; in combination with GN121) [µg/mL] | carbapenem MIC, Combination ([1]; in combination with GN123) [µg/mL] | carbapenem susceptibility category, Combination ([1]; in combination with GN123) | carbapenem susceptibility category, Alone [2] | carbapenem MIC, Combination ([2]; in combination with GN121) [µg/mL] | carbapenem MIC, Combination ([2]; in combination with GN123) [µg/mL] | carbapenem susceptibility category, Combination ([2]; in combination with GN123) | carbapenem susceptibility category, Alone [3] | carbapenem MIC, Combination ([3]; in combination with GN121) [µg/mL] | carbapenem MIC, Combination ([3]; in combination with GN123) [µg/mL] | carbapenem susceptibility category, Combination ([3]; in combination with GN123) | carbapenem susceptibility category, Alone [4] | carbapenem MIC, Combination ([4]; in combination with GN121) [µg/mL] | carbapenem MIC, Combination ([4]; in combination with GN123) [µg/mL] | carbapenem susceptibility category, Combination ([4]; in combination with GN123) | carbapenem susceptibility category, Alone [5] | carbapenem MIC, Combination ([5]; in combination with GN123) [µg/mL] | carbapenem susceptibility category, Combination ([5]; in combination with GN123) | carbapenem susceptibility category, Alone [6] | other results
1 | C[C@@H](O)[C@H]1C(=O)N2C(C(=O)O)=C(S[C@@H]3CN[C@H](C(=O)N(C)C)C3)[C@H](C)[C@H]12 [MEROPENEM, meropenem] | R ((R) = resistant) | 1 | 1 | S ((S) = sensitive) | R ((R) = resistant) | 1 | 0.5 | S ((S) = sensitive) | R ((R) = resistant) | 1 | 0.5 | S ((S) = sensitive) | R ((R) = resistant) | 2 | 1 | S ((S) = sensitive) | R ((R) = resistant) | 1 | S ((S) = sensitive) | R ((R) = resistant) | carbapenem MIC, Combination ([5]; in combination with GN121): 1 µg/mL; carbapenem MIC, Combination ([6]; in combination with GN121): 2 µg/mL; carbapenem MIC, Combination ([6]; in combination with GN123): 0.5 µg/mL; carbapenem susceptibility category, Combination ([6]; in combination with GN123): S ((S) = sensitive); carbapenem susceptibility category, Alone [7]: R ((R) = resistant); carbapenem MIC, Combination ([7]; in combination with GN121): 1 µg/mL; carbapenem MIC, Combination ([7]; in combination with GN123): 2 µg/mL; carbapenem susceptibility category, Combination ([7]; in combination with GN123): S ((S) = sensitive)
2 | C[C@@H](O)[C@H]1C(=O)N2C(C(=O)O)=C(SCCN=CN)C[C@H]12 [imipenem] | R ((R) = resistant) | 2 | 2 | S ((S) = sensitive) | R ((R) = resistant) | 0.5 | 1 | S ((S) = sensitive) | R ((R) = resistant) | 1 | 0.5 | S ((S) = sensitive) | R ((R) = resistant) | 1 | 0.5 | S ((S) = sensitive) | R ((R) = resistant) | 1 | S ((S) = sensitive) | R ((R) = resistant) | carbapenem susceptibility category, Combination ([1]; in combination with GN121): S ((S) = sensitive); carbapenem susceptibility category, Combination ([2]; in combination with GN121): S ((S) = sensitive); carbapenem susceptibility category, Combination ([3]; in combination with GN121): S ((S) = sensitive); carbapenem susceptibility category, Combination ([4]; in combination with GN121): S ((S) = sensitive); MIC, Alone ([6]; agent alone (carbapenem or lysin)): 16 µg/mL; carbapenem susceptibility category, Combination ([6]; in combination with GN121): S ((S) = sensitive); carbapenem MIC, Combination ([6]; in combination with GN123): 0.25 µg/mL; carbapenem susceptibility category, Combination ([6]; in combination with GN123): S ((S) = sensitive); carbapenem susceptibility category, Alone [7]: R ((R) = resistant); carbapenem MIC, Combination ([7]; in combination with GN121): 1 µg/mL; carbapenem susceptibility category, Combination ([7]; in combination with GN121): S ((S) = sensitive); carbapenem MIC, Combination ([7]; in combination with GN123): 2 µg/mL; carbapenem susceptibility category, Combination ([7]; in combination with GN123): S ((S) = sensitive)
